Measured values taken from patent publication US9217743B2, “Screening method utilizing thalidomide-targeting factor” (Tokyo Institute of Technology, priority 2009, dated 2015).
“Also recorded” adds a separate entry of the source.

Legend:
fgf8a = test: Whole-mount in situ hybridization of zebrafish fin buds; type: in vivo; conditions: AMO injected embryos
Excerpt: (§1) To obtain a clue to the pathway(s) downstream of CRBN and thalidomide, the present inventors analyzed well-known key molecules in fin development. Sonic hedgehog (Shh) is expressed in the zone of polarizing activity (ZPA) and is responsible for anteroposterior patterning of the limb and fin (Cited Literature 27), whereas Fgf8 is expressed in the apical ectodermal ridge (AER) of the limb and fin and is necessary for outgrowth of the limb and fin along the proximodistal axis. […] Thus, an inhibitor of FGF8 production is a possible downstream target of thalidomide and the CRBN-containing E3 complex.
(§2) This assay was carried out in accordance with Cited Literature 41. Antisense probe for zcrbn mRNA was directed against the 5′-coding region of 513 bp. Antisense probe for zcul4a was directed against the 3′ untranslated region (3′ UTR) of 590 bp. Probes for shh and fgf8 were kindly provided by Dr. Krauss and Dr. Thisse, respectively. To increase permeability of probes, fixed embryos were incubated with PBS containing 0.1% Tween-20 and […] proteinase K for two minutes at room temperature.

shh = test: as above; type: in vivo; conditions: AMO injected embryos
Excerpt: as §1, §2

zebrafish embryos = test: Zebrafish embryo development, pectoral fins and otic vesicles; type: in vivo, zebrafish (Danio rerio); conditions: for fin and otic vesicle development: AMO injected into one cell stage embryos
CRBN = CRBN (Homo sapiens, UniProt Q96SW2); test: Elution of CRBN from thalidomide-immobilized beads by test compound, Western blotting; conditions: for CRBN eluted from thalidomide-immobilized beads by the compound: 293T cell extracts, buffer containing 0.1 to 1 mM compound, one hour, Western blotting; for bindability with CRBN: concluded from elution from thalidomide-immobilized beads
CRBN, sequence (Q96SW2 whole entry): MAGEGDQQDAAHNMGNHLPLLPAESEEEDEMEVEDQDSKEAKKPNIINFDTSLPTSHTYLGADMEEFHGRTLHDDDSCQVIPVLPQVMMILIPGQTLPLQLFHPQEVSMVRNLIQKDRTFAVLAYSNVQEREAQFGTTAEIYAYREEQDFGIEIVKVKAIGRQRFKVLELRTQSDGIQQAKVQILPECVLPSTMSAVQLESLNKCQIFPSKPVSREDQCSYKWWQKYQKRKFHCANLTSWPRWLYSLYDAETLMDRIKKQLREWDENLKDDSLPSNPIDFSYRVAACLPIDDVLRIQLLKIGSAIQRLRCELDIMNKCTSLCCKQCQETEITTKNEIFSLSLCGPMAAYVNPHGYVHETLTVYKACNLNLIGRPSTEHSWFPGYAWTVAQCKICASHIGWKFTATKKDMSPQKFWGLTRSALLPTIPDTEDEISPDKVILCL
Procedure: Firstly, thalidomide-immobilized FG beads are prepared. The immobilized beads are mixed and incubated with extracts of CRBN-expressing cells or recombinant proteins for one hour or longer in a rotator at 5 rpm and 4° C. Then, after the beads are washed with a buffer, for example, a buffer containing a thalidomide derivative as a test substance is passed through the beads to see whether CRBN is eluted. Examples of a detection method include Western blotting, dot blotting, CBB staining, and silver staining.

DDB1 = test: Elution of DDB1 from thalidomide-immobilized beads by test compound, Western blotting; conditions: Example 6; 293T extracts; elution with 1 mM compound
[1] = test system: multiple myeloma cell Kms12; test: Growth inhibition of multiple myeloma cells, Cell Count-Reagent SF; type: cell-based, human; conditions: 48 hours, 37° C., 5% CO2
Procedure: KMS-12 cells were incubated with thalidomide or 5HPP-33 (100 μM) for 48 hours at 37° C. in 5% CO2. For measurement of the number of the living cells, Cell Count-Reagent SF (Nacalai Tesque, Inc.) was added to culture media for 2 hours at the end of the 48 hours culture. The absorbance at 450 nm was measured.
Multiple myeloma cell Kms12 were cultured in RPMI Medium 1640 containing 10% FBS. For treatment with drugs, the medium was adjusted to contain 2×10^5 Kms12 cells/ml and dispensed in 2 ml Eppendorf tubes in 2 ml aliquots. As the stock solution, thalidomide or 5HPP-33 were dissolved in dimethylsulfoxide (DMSO) at concentration of 100 mM and […] respectively. The stock solution was added to the cell suspension at 2 μl/2 ml, followed by gentle and thorough inversion mixing. Cell mixture was dispensed in a 96 well plate at 100 μl/well and cultured at 37° C. and 5% CO2 for 48 hours. For measurement of the number of the living cells, Cell Count-Reagent SF (Nacalai Tesque, Inc.) was added to culture media and incubated for 2 hours. The absorbance at 450 nm, which is correlate to the number, were measured by GloMax-Multi+ Detection System (Promega KK) For preparation of a calibration curve, 1×10^6, 3×10^5 and 1×10^5 Kms12 cells/ml were used. Defining the number of cells treated with the solvent as 100, the number of cells treated with the drugs were expressed as relative values.

Row | Compound | fgf8a expression (fgf8a) | shh expression (shh) | fin and otic vesicle development (zebrafish embryos) | size of otic vesicles, of the control size (zebrafish embryos; knockdown embryos at 27 hpf) [%] | CRBN eluted from thalidomide-immobilized beads by the compound (CRBN) | CRBN in the eluate fraction (CRBN; Example 6, 293T extracts, elution with 1 mM compound) | bindability with CRBN (CRBN) | DDB1 in the eluate fraction (DDB1) | proliferation of the multiple myeloma cell Kms12 [1] | reduction of the size of otic vesicles compared to wild type (zebrafish embryos; AMO-injected embryos at 27 hpf) [%]
1 | zcul4a AMO: antisense morpholino oligo for zcul4a, 5′-CTGGTGCTGAACATCTTCTGCCATC-3′ (SEQ ID NO: 6) (all phosphorodiamidate morpholino (PMO)) | reduced | no difference | caused defects | 40 |  |  |  |  |  | 
2 | O=C1NC(=O)c2ccccc21 [phthalimide] |  |  |  |  | very little CRBN was eluted; also recorded: not eluted | not detected | low bindability | not detected |  | 
3 | CC(C)c1cccc(C(C)C)c1N1C(=O)c2ccc(O)cc2C1=O [5HPP-33] |  |  |  |  | very little CRBN was eluted; also recorded: not eluted |  | low bindability and low and extremely low bindability |  | potent suppressive action; also recorded: potently suppressed; also recorded: growth inhibition | 
4 | zcrbn-AMO: antisense morpholino oligo for zcrbn, 5′-AGAGCTGTAGCTGGTTCCCCATTTC-3′ (SEQ ID NO: 5) (all phosphorodiamidate morpholino (PMO)) | reduced | no difference | exhibited defects |  |  |  |  |  |  | 40
